Reference: US20150133426A1, “SUBSTITUTED PYRROLOPYRIMIDINES” (BAYER PHARMA AKTIENGESELLSCHAFT, priority 2012, published 2015)

biological target: T1, human full-length MKNK1 (Homo sapiens, UniProt Q9BUB5, T385D); experiment: MKNK1 kinase high ATP assay (TR-FRET); format: biochemical; conditions: high ATP (2 mM), 15 min preincubation with enzyme, GST-MKNK1 (T344D)
T1 construct: purchased Carna Biosciences 02-145; host or cells: insect cells, baculovirus expression system
Method: MKNK1-inhibitory activity at high ATP of compounds of the present invention after their preincubation with MKNK1 was quantified employing the TR-FRET-based MKNK1 high ATP assay as described in the following paragraphs.
A recombinant fusion protein of Glutathione-S-Transferase (GST, N-terminally) and human full-length MKNK1 (amino acids 1-424 and T344D of accession number BAA 19885.1), expressed in insect cells using baculovirus expression system and purified via glutathione sepharose affinity chromatography, was purchased from Carna Biosciences (product no 02-145) and used as enzyme. As substrate for the kinase reaction the biotinylated peptide biotin-Ahx-IKKRKLTRRKSLKG (C-terminus in amide form) was used, which can be purchased e.g. from the company Biosyntan (Berlin-Buch, Germany).
For the assay 50 nL of a 100fold concentrated solution of the test compound in DMSO was pipetted into a black low volume 384well microtiter plate (Greiner Bio-One, Frickenhausen, Germany), 2 μL of a solution of MKNK1 in aqueous assay buffer [50 mM HEPES pH 7.5, 5 mM MgCl2, 1.0 mM dithiothreitol, 0.005% (v/v) Nonidet-P40 (Sigma)] was added and the mixture was incubated for 15 min at 22° C. to allow pre-binding of the test compounds to the enzyme before the start of the kinase reaction. Then the kinase reaction was started by the addition of 3 μL of a solution of adenosine-tri-phosphate (ATP, 3.3 mM=>final conc. in the 5 μL assay volume is 2 mM) and substrate (0.1 μM=>final conc. in the 5 μL assay volume is 0.06 μM) in assay buffer and the resulting mixture was incubated for a reaction time of 30 min at 22° C. The concentration of MKNK1 was adjusted depending of the activity of the enzyme lot and was chosen appropriate to have the assay in the linear range, typical concentrations were in the range of 0.003 μg/mL. The reaction was stopped by the addition of 5 μL of a solution of TR-FRET detection reagents (5 nM streptavidine-XL665 [Cisbio Bioassays, Codolet, France] and 1 nM anti-ribosomal protein […] (pSer236)-antibody from Invitrogen [#44921G] and 1 nM LANCE EU-W1024 labeled ProteinG [Perkin-Elmer, product no. AD0071]) in an aqueous EDTA-solution (100 mM EDTA, 0.1% (w/v) bovine serum albumin in 50 mM HEPES pH 7.5).
The resulting mixture was incubated for 1 h at 22° C. to allow the formation of complex between the phosphorylated biotinylated peptide and the detection reagents. Subsequently the amount of phosphorylated substrate was evaluated by measurement of the resonance energy transfer from the Eu-chelate to the streptavidine-XL. Therefore, the fluorescence emissions at 620 nm and 665 nm after excitation at 350 nm were measured in a TR-FRET reader, e.g. a Rubystar (BMG Labtechnologies, Offenburg, Germany) or a Viewlux (Perkin-Elmer). The ratio of the emissions at 665 nm and at […] was taken as the measure for the amount of phosphorylated substrate. The data were normalised (enzyme reaction without inhibitor=0% inhibition, all other assay components but no enzyme=100% inhibition).

T1 sequence (Q9BUB5 1-424 isoform Q9BUB5-2 T344D): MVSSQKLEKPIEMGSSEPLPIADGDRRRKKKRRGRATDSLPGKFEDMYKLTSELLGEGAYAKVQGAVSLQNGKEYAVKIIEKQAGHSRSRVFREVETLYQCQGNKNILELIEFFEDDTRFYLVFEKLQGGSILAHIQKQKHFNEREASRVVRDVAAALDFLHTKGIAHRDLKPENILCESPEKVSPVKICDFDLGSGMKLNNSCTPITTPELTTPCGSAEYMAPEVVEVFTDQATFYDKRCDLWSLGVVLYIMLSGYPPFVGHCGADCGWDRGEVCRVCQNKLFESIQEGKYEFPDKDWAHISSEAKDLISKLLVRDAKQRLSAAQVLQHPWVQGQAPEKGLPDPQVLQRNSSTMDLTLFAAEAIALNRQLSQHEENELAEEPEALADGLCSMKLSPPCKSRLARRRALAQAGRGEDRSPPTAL

| SMILES | IC50 |
| --- | --- |
| COc1cccc(C)c1Nc1ncnc2[nH]c3c(c12)CC(C(=O)NCCCS(C)(=O)=O)CC3 (racemic) [Example 75, (RS)-4-[(2-Methoxy-6-methylphenyl)amino]-N-[3-(methylsulfonyl)propyl]-6,7,8,9-tetrahydro-5H-pyrimido[4,5-b]indole-6-carboxamide] | 7.67 µM |
| CS(=O)(=O)CCCNC(=O)C1CCc2[nH]c3ncnc(Nc4ccc5c(c4)COC5=O)c3c2C1 (racemic) [Example 45, (RS)—N-[3-(Methylsulfonyl)propyl]-4-[(1-oxo-1,3-dihydro-2-benzofuran-5-yl)amino]-6,7,8,9-tetrahydro-5H-pyrimido[4,5-b]indole-6-carboxamide] | 0.082 µM |
| CS(=O)(=O)CCCNC(=O)C1CCc2[nH]c3ncnc(Nc4ccc5[nH]c(=O)sc5c4)c3c2C1 (racemic) [Example 29, (RS)—N-[3-(Methylsulfonyl)propyl]-4-[(2-oxo-2,3-dihydro-1,3-benzothiazol-6-yl)amino]-6,7,8,9-tetrahydro-5H-pyrimido[4,5-b]indole-6-carboxamide] | 0.014 µM |
| COCC1(OC)CCc2[nH]c3ncnc(Nc4ccc(F)cc4OC(C)C)c3c2C1 (racemic) [Example 137] | 0.773 µM |
| CS(=O)(=O)CCCNC(=O)C1CCc2[nH]c3ncnc(Nc4cc5cn[nH]c5cc4F)c3c2C1 (racemic) [Example 61, (RS)-4-[(6-Fluoro-1H-indazol-5-yl)amino]-N-[3-(methylsulfonyl)propyl]-6,7,8,9-tetrahydro-5H-pyrimido[4,5-b]indole-6-carboxamide] | 0.017 µM |
| COP(C)(=O)c1ccc(Nc2ncnc3[nH]c4c(c23)CC(C(=O)NCCCS(C)(=O)=O)CC4)cc1 (racemic) [Example 64, (RS)-Methyl methyl{4-[(6-{[3-(methylsulfonyl)propyl]carbamoyl}-6,7,8,9-tetrahydro-5H-pyrimido[4,5-b]indol-4-yl)amino]phenyl}phosphinate] | 19.7 µM |
| COCC1(OC)CCc2[nH]c3ncnc(Nc4cc5cn[nH]c5cc4F)c3c2C1 (racemic) [Example 139] | 0.197 µM |
| O=c1[nH]c2ccc(Nc3ncnc4[nH]c5c(c34)CCCC5)cc2[nH]c1=O [Example 110] | 12.2 µM |
| c1nc(Nc2ccc3[nH]ncc3c2)c2c3c([nH]c2n1)CCCCC3 [Example 3, N-(1H-Indazol-5-yl)-5,6,7,8,9,10-hexahydrocyclohepta[4,5]pyrrolo[2,3-d]pyrimidin-4-amine] | 0.045 µM |
| CS(=O)(=O)CCCNC(=O)C1CCc2[nH]c3ncnc(Nc4ccc5c(c4)CS(=O)(=O)C5)c3c2C1 (racemic) [Example 40, (RS)-4-[(2,2-Dioxido-1,3-dihydro-2-benzothiophen-5-yl)amino]-N-[3-(methylsulfonyl)propyl]-6,7,8,9-tetrahydro-5H-pyrimido[4,5-b]indole-6-carboxamide] | 1.16 µM |
| CC(C)Oc1cc(F)ccc1Nc1ncnc2[nH]c3c(c12)CS(=O)(=O)CC3 [Example 84, N-(4-Fluoro-2-isopropoxyphenyl)-5,7,8,9-tetrahydrothiopyrano[3′,4′:4,5]pyrrolo[2,3-d]pyrimidin-4-amine 6,6-dioxide] | 0.082 µM |
| CC(C)Oc1cc(F)ccc1Nc1ncnc2[nH]c3c(c12)CCCCC3 [Example 4, N-(4-Fluoro-2-isopropoxyphenyl)-5,6,7,8,9,10-hexahydrocyclohepta[4,5]pyrrolo[2,3-d]pyrimidin-4-amine] | 0.258 µM |
| CS(=O)(=O)CCCNC(=O)C1CCc2[nH]c3ncnc(Nc4ccccc4OC4CCOCC4)c3c2C1 (racemic) [Example 79, (RS)—N-[3-(Methylsulfonyl)propyl]-4-{[2-(tetrahydro-2H-pyran-4-yloxy)phenyl]amino}-6,7,8,9-tetrahydro-5H-pyrimido[4,5-b]indole-6-carboxamide] | 0.058 µM |
| COc1cc2[nH]ncc2cc1Nc1ncnc2[nH]c3c(c12)CC(C(=O)NCCCS(C)(=O)=O)CC3 (racemic) [Example 163, (RS)-4-[(6-Methoxy-1H-indazol-5-yl)amino]-N-[3-(methylsulfonyl)propyl]-6,7,8,9-tetrahydro-5H-pyrimido[4,5-b]indole-6-carboxamide] | 0.004 µM |
| CC(C)Oc1ccc(Cl)cc1Nc1ncnc2[nH]c3c(c12)CC(C(=O)O)CC3 (racemic) [Example 234, (RS)-4-{[5-Chloro-2-(propan-2-yloxy)phenyl]amino}-6,7,8,9-tetrahydro-5H-pyrimido[4,5-b]indole-6-carboxylic acid] | 0.288 µM |
| c1nc(Nc2ccc3[nH]ncc3c2)c2c3c([nH]c2n1)CCSC3 [Example 66, N-(1H-Indazol-5-yl)-5,7,8,9-tetrahydrothiopyrano[3′,4′:4,5]pyrrolo[2,3-d]pyrimidin-4-amine] | 0.043 µM |
| CS(=O)(=O)CCCNC(=O)C1CCc2[nH]c3ncnc(Nc4cccc(F)c4F)c3c2C1 (racemic) [Example 77, (RS)-4-[(2,3-Difluorophenyl)amino]-N-[3-(methylsulfonyl)propyl]-6,7,8,9-tetrahydro-5H-pyrimido[4,5-b]indole-6-carboxamide] | 3.63 µM |
| COc1ccc(F)cc1Nc1ncnc2[nH]c3c(c12)CC(C(=O)NC1CC1)CC3 (racemic) [Example 197, (RS)—N-Cyclopropyl-4-[(5-fluoro-2-methoxyphenyl)amino]-6,7,8,9-tetrahydro-5H-pyrimido[4,5-b]indole-6-carboxamide] | 0.188 µM |
| CS(=O)(=O)CCCNC(=O)C1CCc2[nH]c3ncnc(Nc4ccccc4OC4CCCC4)c3c2C1 (racemic) [Example 78, (RS)-4-{[2-(Cyclopentyloxy)phenyl]amino}-N-[3-(methylsulfonyl)propyl]-6,7,8,9-tetrahydro-5H-pyrimido[4,5-b]indole-6-carboxamide] | 0.024 µM |

Other lines, results leading:

| IC50 | SMILES |
| --- | --- |
| ≥ 20 µM | c1ccc(OC2CCCC2)c(Nc2ncnc3[nH]c4c(c23)CCCC4)c1 [Example 116] |
| 0.052 µM | CS(=O)(=O)CCCNC(=O)C1CCc2[nH]c3ncnc(Nc4ccccc4N4CCOCC4)c3c2C1 (racemic) [Example 30, (RS)—N-[3-(Methylsulfonyl)propyl]-4-{[2-(morpholin-4-yl)phenyl]amino}-6,7,8,9-tetrahydro-5H-pyrimido[4,5-b]indole-6-carboxamide] |
| 3.08 µM | Cc1ccc(Nc2ncnc3[nH]c4c(c23)CC(C(=O)NCCCS(C)(=O)=O)CC4)c(O)c1 (racemic) [Example 54, (RS)-4-[(2-Hydroxy-4-methylphenyl)amino]-N-[3-(methylsulfonyl)propyl]-6,7,8,9-tetrahydro-5H-pyrimido[4,5-b]indole-6-carboxamide] |
| 0.05 µM | COCC1(OC)CCc2[nH]c3ncnc(Nc4cc5cn[nH]c5cc4OC(C)C)c3c2C1 (racemic) [Example 231, (RS)-6-Methoxy-6-(methoxymethyl)-N-[6-(propan-2-yloxy)-1H-indazol-5-yl]-6,7,8,9-tetrahydro-5H-pyrimido[4,5-b]indol-4-amine] |
| 0.91 µM | CNC(=O)C1CCc2[nH]c3ncnc(N4CCc5ccccc54)c3c2C1 (racemic) [Example 212, (RS)-4-(2,3-Dihydro-1H-indol-1-yl)-N-methyl-6,7,8,9-tetrahydro-5H-pyrimido[4,5-b]indole-6-carboxamide] |
| 0.006 µM | COc1cc(Cl)c(Cl)cc1Nc1ncnc2[nH]c3c(c12)CC(C(=O)NCCCS(C)(=O)=O)CC3 (racemic) [Example 44, (RS)-4-[(4,5-Dichloro-2-methoxyphenyl)amino]-N-[3-(methylsulfonyl)propyl]-6,7,8,9-tetrahydro-5H-pyrimido[4,5-b]indole-6-carboxamide] |
| 0.027 µM | c1nc(Nc2ccc3[nH]ncc3c2)c2c3c([nH]c2n1)CCCC3 [Example 2, N-(1H-Indazol-5-yl)-6,7,8,9-tetrahydro-5H-pyrimido[4,5-b]indol-4-amine] |
| 0.038 µM | O=c1[nH]c2ccc(Nc3ncnc4[nH]c5c(c34)CC(F)(F)CC5)cc2s1 [Example 142] |
| 3.17 µM | CS(=O)(=O)CCCNC(=O)C1CCc2[nH]c3ncnc(Nc4ccc5c(c4)OC(F)(F)O5)c3c2C1 (racemic) [Example 36, (RS)-4-[(2,2-Difluoro-1,3-benzodioxol-5-yl)amino]-N-[3-(methylsulfonyl)propyl]-6,7,8,9-tetrahydro-5H-pyrimido[4,5-b]indole-6-carboxamide] |
